Reference: US20230348477A1, “ORGANIC COMPOUND, LIGHT-EMITTING DEVICE, LIGHT-EMITTING APPARATUS, AND ELECTRONIC DEVICE” (SEMICONDUCTOR ENERGY LABORATORY CO., LTD., priority 2022, published 2023)
≈ marks a conversion by molar mass, not a printed value. Entries after “also recorded” stand apart in the source; their conditions may differ.

Legend:
[1] = Solubility test in water by LC/MS; assay type: physicochemical; conditions: room temperature, one atmosphere; for solubility in water, result in words (LC/MS): 1 mg in 1 mL water
Protocol: (§1) In this example, the organic compounds synthesized in Examples 1 and 2 are used to explain the solubility of the organic compound of one embodiment of the present invention. The solubility tests of this example were performed at room temperature (RT) at one atmosphere.
In the LC-MS analysis, liquid chromatography (LC) separation was carried out with ACQUITY UPLC manufactured by Waters Corporation, and MS analysis (mass spectrometry) was carried out with Xevo G2 Tof MS manufactured by Waters Corporation. Acquity UPLC BEH C8 (2.1 × 100 mm, 1.7 µm) was used as a column for the LC separation. Acetonitrile was used for Mobile Phase A and a 0.1 % aqueous solution of formic acid was used for Mobile Phase B. The amount of injection of the sample was 5.0 µL. Note that in the analysis, the wavelength of a photodiode array detector was set to 270 nm.
Into a 5 mL sample bottle, 1 mg of 2,6tip2Py was put and 1 mL of chloroform was added thereto. This mixture was irradiated with ultrasonic waves for five minutes. After it was confirmed that the solid was completely dissolved, this solution was diluted by five times with acetonitrile, whereby the concentration of the solution was adjusted to 200 mg/L. This solution was diluted with acetonitrile, whereby a solution with a concentration of 40 mg/L, a solution with a concentration of 20 mg/L, and a solution with a concentration of 10 mg/L were prepared. The prepared solutions were subjected to LC/MS, and the peak area values derived from 2,6tip2Py, which were obtained at the respective solution concentrations, were used to form calibration curves.
Into a 5 mL sample bottle, 1 mg of 2,6tip2Py was put and 1 mL of water was added thereto. This mixture was irradiated with ultrasonic waves for five minutes. This mixture was filtered through a membrane filter to remove the solid, and the resulting filtrate was diluted by five times with acetonitrile. The obtained solution was subjected to LC/MS.
Into a 5 mL sample bottle, 1 mg of 2,7tip2SF was put and 1 mL of water was added thereto. This mixture was irradiated with ultrasonic waves for five minutes. […]

[2] = Solubility test in water by visual inspection; assay type: physicochemical; conditions: room temperature, one atmosphere; for solubility in water, result in words (visual inspection): about 1.2 mg sample, water added in 10 mL steps (tip compounds)
Protocol: as §1
(§2) Into a 110 mL sample bottle, 1.21 mg of 2,6tip2Py was put and 10 mL of water was added thereto. This mixture was irradiated with ultrasonic waves for one minute. A precipitated white powder was found by visual inspection for an insoluble residue. After further addition of 10 mL of water and one-minute ultrasonic wave irradiation, a precipitated white powder was found by visual inspection. This procedure was repeated until the dissolution was confirmed by visual inspection.
Into a 110 mL sample bottle, 1.23 mg of 2,7tip2SF was put and 10 mL of water was added thereto. This mixture was irradiated with ultrasonic waves for one minute. A precipitated white powder was found by visual inspection for an insoluble residue. After further addition of 10 mL of water and one-minute ultrasonic wave irradiation, a precipitated pale yellow powder was found by visual inspection. This procedure was repeated until the dissolution was confirmed by visual inspection.
Into a 5 mL sample bottle, 50.2 mg of 1,1′-pyridine-2,6-diyl-bis(1,3,4,6,7,8-hexahydro-2H-pyrimido[1,2-a]pyrimidine) (abbreviation: hpp2Py) having a structure where a hydropyrimidine ring is substituted for the imidazole ring of the guanidine skeleton in 2,6tip2Py, which is an organic compound of one embodiment of the present invention, was put, and 1.0 mL of water was added thereto. The dissolution was found by visual inspection for an insoluble residue.
as §2, with “20” for “110”, “1.16” for “1.21”, “1,1′-(9,9′-spirobi[9H-fluorene]-2,7-diyl)bis(1,3,4,6,7,8-hexahydro-2H-pyrimido[1,2-a]pyrimidine) (abbreviation: 2,7hpp2SF) having a structure where a hydropyrimidine ring is substituted for the imidazole ring of the guanidine skeleton in 2,7tip2SF, which is an organic compound of one embodiment of the present invention,” for “2,6tip2Py”, “put,” for “put”, “0.5” for “10”
The precipitated white powder was found until the total amount of water reached 3.0 mL. After further addition of 0.5 mL of water and ultrasonic wave irradiation, no precipitated white powder was found.

**Q.** With `c1cc(N2CCCn3ccnc32)nc(N2CCCn3ccnc32)c1` [2,6tip2Py, 8,8′-pyridine-2,6-diyl-bis(5,6,7,8-tetrahydroimidazo[1,2-a]pyrimidine)] as the compound, how does the “solubility in water, result in words (LC/MS)” value [1] read?
**A.** very low solubility in water

**Q.** And the solubility at 5 min ([1]; thermodynamic from solid, filtrate quantified by LC/MS against calibration curve, read-out: solubility in 1 mL of water)?
**A.** 18 µg/mL (≈ 56 µM)

**Q.** What about the “solubility in water, result in words (visual inspection)” value (from here on “solubility … (visual inspection)”) [2] of the same compound?
**A.** precipitated white powder was found until the total amount of water reached 100 mL

**Q.** Which “solubility … (visual inspection)” value [2] does the source give for `c1ccc2c(c1)-c1ccccc1C21c2cc(N3CCCN4CCCN=C43)ccc2-c2ccc(N3CCCN4CCCN=C43)cc21` [2,7hpp2SF, 1,1′-(9,9′-spirobi[9H-fluorene]-2,7-diyl)bis(1,3,4,6,7,8-hexahydro-2H-pyrimido[1,2-a]pyrimidine)] here?
**A.** high solubility in water

**Q.** With `c1ccc2c(c1)-c1ccccc1C21c2cc(N3CCCn4ccnc43)ccc2-c2ccc(N3CCCn4ccnc43)cc21` [2,7tip2SF, 8,8′-(9,9′-spirobi[9H-fluorene]-2,7-diyl)bls(5,6,7,8-tetrahydrolmidazo[1,2-a]pyrimidine)] as the compound, how does the “solubility in water, result in words (LC/MS)” value [1] read?
**A.** insoluble in water; also recorded: very low solubility in water

**Q.** And the “solubility … (visual inspection)” value [2]?
**A.** precipitated pale yellow powder was found until the total amount of water reached 100 mL

**Q.** With `c1cc(N2CCCN3CCCN=C32)nc(N2CCCN3CCCN=C32)c1` [hpp2Py, 1,1′-pyridine-2,6-diyl-bis(1,3,4,6,7,8-hexahydro-2H-pyrimido[1,2-a]pyrimidine)] as the compound, how does the “solubility … (visual inspection)” value [2] read?
**A.** high solubility in water

**Q.** And the “weight dissolved in 1.0 mL of water” value ([2]; ultrasonic irradiation, visual inspection, per 1.0 mL of water)?
**A.** greater than or equal to 50.2 mg
